Patent publication US6362369B1, “Phthalic acid diamide derivatives fluorine-containing aniline compounds as starting material, agricultural and horticultural insecticides, and a method for application of the insecticides” (Nihon Nohyaku Co., Ltd., priority 1997, dated 2002)

Columns and labels:
Format in all cases: in vivo
[1] = tested on: diamondback moth (Plutella xylostella); assay: Insecticidal effect on diamondback moth (Test Example 1); conditions: for Insecticidal effect, Test Example 1 / Insecticidal effect (Test Example 1), judged from mortality: diamondback moth; for Insecticidal effect (Test Example 1), judged from mortality: judged by the criterion of Test Example 1; for Insecticidal effect on diamondback moth (Test Example 1), judged grade: mortality judged according to the criterion shown in Test Example 1
Outline: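 Chinese cabbage seedlings carrying eggs laid by released adult moths were immersed in treatment, air-dried and held at 25° C. Hatched insects were counted six days after immersion, and mortality was calculated and scored against a fixed criterion. Three replicate groups of 10 insects were used.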

[2] = tested on: common cutworm (Spodoptera Litura); assay: Insecticidal effect on common cutworm (Test Example 2); conditions: 500 ppm, 25° C.; for Insecticidal effect, Test Example 2: cabbage leaf immersed; for Insecticidal effect, Test Example 2 / Insecticidal effect on common cutworm (Test Example 2), judged grade: eight days after inoculation; for Insecticidal effect (Test Example 2), judged from mortality / Insecticidal effect on common cutworm (Test Example 2), judged grade: cabbage leaf dip; for Insecticidal effect (Test Example 2), judged from mortality: 8 days after inoculation; for Insecticidal effect on common cutworm (Test Example 2), judged grade: second-instar larvae
Outline: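 After the treated material air-dries, it goes into a dish, second-instar larvae are added, and the dish is closed. Incubation runs at 25° C. On day eight, dead and living larvae are scored, and the calculated mortality is rated on an effect scale.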

[3] = tested on: rice leafroller (Cnaphalocrocis medinalis); assay: Insecticidal effect on rice leafroller (Test Example 3); conditions: 500 ppm, 25° C., humidity 70%; for Insecticidal effect, Test Example 3: rice lamina immersed; for Insecticidal effect, Test Example 3 / Insecticidal effect on rice leafroller (Test Example 3), judged grade: four days after inoculation; for Insecticidal effect (Test Example 3), judged from mortality / Insecticidal effect on rice leafroller (Test Example 3), judged grade: rice lamina dip; for Insecticidal effect (Test Example 3), judged from mortality: 4 days after inoculation; for Insecticidal effect on rice leafroller (Test Example 3), judged grade: third-instar larvae
Outline: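 Groups of 10 third-instar larvae, in triplicate, are placed on air-dried lamina resting on wet filter paper. Incubation runs four days at 25° C with 70% humidity before survivors and dead are tallied.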

[4] = judged by the mortality criterion of Test Example 1
[5] = second-instar larvae of common cutworm
[6] = third-instar larvae of rice leafroller
[7] = mortality judged by criterion of Test Example 1
[8] = common cutworm second-instar larvae
[9] = rice leafroller third-instar larvae

## CC(C)NC(=O)c1cc(Cl)ccc1C(=O)Nc1ccc(OC(F)(F)F)cc1 [compound 172]
[1]; [4]
  Insecticidal effect, Test Example 1: A (100)
[2]; [5]
  Insecticidal effect, Test Example 2: A (100)
[3]; [6]
  Insecticidal effect, Test Example 3: D (79-50)

## CCCNC(=O)c1c(F)cccc1C(=O)Nc1ccc(C(F)(F)C(F)(F)F)cc1F [compound 1512]
[1]
  Insecticidal effect (Test Example 1), judged from mortality: A (100)
[2]; [5]
  Insecticidal effect (Test Example 2), judged from mortality: A (100)
[3]; [6]
  Insecticidal effect (Test Example 3), judged from mortality: A (100)

## Cc1cc(C(F)(F)F)ccc1NC(=O)c1c(Cl)cccc1C(=O)NC(C)C [compound 221]
[1]; [4]
  Insecticidal effect, Test Example 1: A (100)
[2]; [5]
  Insecticidal effect, Test Example 2: A (100)
[3]; [6]
  Insecticidal effect, Test Example 3: A (100)

## Cc1cc(OC(F)(F)C(F)(Br)C(F)(F)F)ccc1NC(=O)c1c(I)cccc1C(=O)NC(C)C (stereo not drawn) [compound 446]
[1]
  Insecticidal effect on diamondback moth (Test Example 1), judged grade: A (100)
[2]
  Insecticidal effect on common cutworm (Test Example 2), judged grade: A (100)
[3]
  Insecticidal effect on rice leafroller (Test Example 3), judged grade: A (100)

## CC(C)NC(=O)c1c(I)cccc1C(=O)Nc1cc2c(cc1Cl)OC(F)(F)C(F)(F)O2 [compound 1625]
[1]
  Insecticidal effect (Test Example 1), judged from mortality: A (100)
[2]; [5]
  Insecticidal effect (Test Example 2), judged from mortality: A (100)
[3]; [6]
  Insecticidal effect (Test Example 3), judged from mortality: A (100)

## Cc1cc(C(F)(F)C(F)(F)F)ccc1NC(=O)c1cccc(C(F)(F)F)c1C(=O)NC(C)(C)C [compound 1231]
[1]; [7]
  Insecticidal effect, Test Example 1: A (100)
[2]; [8]
  Insecticidal effect, Test Example 2: A (100)
[3]; [9]
  Insecticidal effect, Test Example 3: A (100)

## Cc1cc(Cl)ccc1NC(=O)c1cccc(I)c1C(=O)NC(C)C [compound 362]
[1]; [4]
  Insecticidal effect, Test Example 1: A (100)
[2]; [5]
  Insecticidal effect, Test Example 2: A (100)
[3]; [6]
  Insecticidal effect, Test Example 3: A (100)

## CC(C)NC(=O)c1c(Cl)cccc1C(=O)Nc1ccc(C(F)(F)C(F)(F)F)cc1 [compound 893]
[1]
  Insecticidal effect on diamondback moth (Test Example 1), judged grade: A (100)
[2]
  Insecticidal effect on common cutworm (Test Example 2), judged grade: A (100)
[3]
  Insecticidal effect on rice leafroller (Test Example 3), judged grade: A (100)

## Cc1cc(C(F)(F)C(F)(F)F)ccc1NC(=O)c1cccc(Cl)c1C(=O)NC(C)(C)C#Cc1cccnc1 [compound 1590]
[1]
  Insecticidal effect (Test Example 1), judged from mortality: A (100)
[2]; [5]
  Insecticidal effect (Test Example 2), judged from mortality: A (100)
[3]; [6]
  Insecticidal effect (Test Example 3), judged from mortality: A (100)

## COc1cccc(C(=O)NC(C)C)c1C(=O)Nc1cc(Cl)ccc1C [compound 770]
[1]
  Insecticidal effect on diamondback moth (Test Example 1), judged grade: A (100)
[2]
  Insecticidal effect on common cutworm (Test Example 2), judged grade: A (100)
[3]
  Insecticidal effect on rice leafroller (Test Example 3), judged grade: A (100)

## CC(C)NC(=O)c1c(I)cccc1C(=O)Nc1ccc2oc(-c3ccc(C(F)(F)F)cc3)nc2c1 [compound 1173]
[1]; [7]
  Insecticidal effect, Test Example 1: A (100)
[2]; [8]
  Insecticidal effect, Test Example 2: A (100)
[3]; [9]
  Insecticidal effect, Test Example 3: A (100)

## CCCNC(=O)c1c(I)cccc1C(=O)Nc1ccc(C(F)(F)C(F)(F)F)cc1C [compound 1303]
[1]; [7]
  Insecticidal effect, Test Example 1: A (100)
[2]; [8]
  Insecticidal effect, Test Example 2: A (100)
[3]; [9]
  Insecticidal effect, Test Example 3: A (100)

## CC(C)(C)NC(=O)c1c(Cl)cccc1C(=O)Nc1ccc2c(c1)OC(F)(F)O2 [compound 1104]
[1]; [7]
  Insecticidal effect, Test Example 1: A (100)
[2]; [8]
  Insecticidal effect, Test Example 2: A (100)
[3]; [9]
  Insecticidal effect, Test Example 3: A (100)

## CC(C)NC(=O)c1c(Cl)cccc1C(=O)Nc1ccc(C(F)(F)C(F)(F)F)cc1F [compound 1382]
[1]; [7]
  Insecticidal effect, Test Example 1: A (100)
[2]; [8]
  Insecticidal effect, Test Example 2: A (100)
[3]; [9]
  Insecticidal effect, Test Example 3: A (100)

## Cc1cc(OC(F)(F)F)ccc1NC(=O)c1ccc(Cl)c(Cl)c1C(=O)NC(C)C [compound 1221]
[1]; [7]
  Insecticidal effect, Test Example 1: A (100)
[2]; [8]
  Insecticidal effect, Test Example 2: A (100)
[3]; [9]
  Insecticidal effect, Test Example 3: A (100)

## CC(C)NC(=O)c1c(F)cccc1C(=O)Nc1ccc(OC(F)(F)F)cc1Br [compound 509]
[1]
  Insecticidal effect on diamondback moth (Test Example 1), judged grade: A (100)
[2]
  Insecticidal effect on common cutworm (Test Example 2), judged grade: A (100)
[3]
  Insecticidal effect on rice leafroller (Test Example 3), judged grade: A (100)

## CCN(CC)C(=O)c1c(Cl)cccc1C(=O)Nc1ccc(C(F)(F)C(F)(F)F)cc1C [compound 1535]
[1]
  Insecticidal effect (Test Example 1), judged from mortality: A (100)
[2]; [5]
  Insecticidal effect (Test Example 2), judged from mortality: A (100)
[3]; [6]
  Insecticidal effect (Test Example 3), judged from mortality: A (100)

## CCN(CC)C(=O)c1c(I)cccc1C(=O)Nc1ccc(C(F)(F)F)cc1 [compound 1558]
[1]
  Insecticidal effect (Test Example 1), judged from mortality: A (100)
[2]; [5]
  Insecticidal effect (Test Example 2), judged from mortality: C (89-80)
[3]; [6]
  Insecticidal effect (Test Example 3), judged from mortality: A (100)

## Cc1cc(OC(F)(F)Br)ccc1NC(=O)c1cccc(Cl)c1C(=O)NC(C)(C)C [compound 1050]
[1]; [7]
  Insecticidal effect, Test Example 1: A (100)
[2]; [8]
  Insecticidal effect, Test Example 2: A (100)
[3]; [9]
  Insecticidal effect, Test Example 3: A (100)

## CC(C)NC(=O)c1c(F)cccc1C(=O)Nc1ccc(C(F)(F)C(F)(F)C(F)(F)F)cc1 [compound 473]
[1]
  Insecticidal effect on diamondback moth (Test Example 1), judged grade: A (100)
[2]
  Insecticidal effect on common cutworm (Test Example 2), judged grade: A (100)
[3]
  Insecticidal effect on rice leafroller (Test Example 3), judged grade: A (100)

## Cc1cc(OC(F)F)ccc1NC(=O)c1cccc(I)c1C(=O)NC(C)C [compound 387, N^1-(4-difluoromethoxy-2-methylphenyl)-3-iodo-N^2-isopropylphthalic acid diamide]
[1]; [4]
  Insecticidal effect, Test Example 1: A (100)
[2]; [5]
  Insecticidal effect, Test Example 2: A (100)
[3]; [6]
  Insecticidal effect, Test Example 3: A (100)

## CCNC(=O)c1c(I)cccc1C(=O)Nc1ccc(C(F)(C(F)(F)F)C(F)(F)F)cc1C [compound 1073]
[1]; [7]
  Insecticidal effect, Test Example 1: A (100)
[2]; [8]
  Insecticidal effect, Test Example 2: A (100)
[3]; [9]
  Insecticidal effect, Test Example 3: A (100)

## Cc1cc(C(F)(F)C(F)(F)F)ccc1NC(=O)c1cccc(I)c1C(=O)NC1CC1 [compound 1024]
[1]; [7]
  Insecticidal effect, Test Example 1: A (100)
[2]; [8]
  Insecticidal effect, Test Example 2: A (100)
[3]; [9]
  Insecticidal effect, Test Example 3: A (100)

## Cc1cc(Oc2ncc(C(F)(F)F)cc2Cl)ccc1NC(=O)c1cccc(I)c1C(=O)NC(C)C [compound 400]
[1]; [4]
  Insecticidal effect, Test Example 1: A (100)
[2]; [5]
  Insecticidal effect, Test Example 2: D (79-50)
[3]; [6]
  Insecticidal effect, Test Example 3: A (100)

## CC(C)NC(=O)c1ccccc1C(=O)Nc1ccc(C(F)(F)C(F)(F)C(F)(F)F)cc1 [compound 27]
[1]; [4]
  Insecticidal effect, Test Example 1: A (100)
[2]; [5]
  Insecticidal effect, Test Example 2: A (100)
[3]; [6]
  Insecticidal effect, Test Example 3: C (89-80)

## CC(C)NC(=O)c1c(Cl)cccc1C(=O)Nc1ccc(SC(F)(F)C(F)(F)Br)cc1 [compound 103]
[1]; [4]
  Insecticidal effect, Test Example 1: A (100)
[2]; [5]
  Insecticidal effect, Test Example 2: C (89-80)
[3]; [6]
  Insecticidal effect, Test Example 3: A (100)

## CC(C)(C)NC(=O)c1c(I)cccc1C(=O)Nc1cc2c(cc1Cl)OC(F)(F)C(F)(F)O2 [compound 1645]
[1]
  Insecticidal effect (Test Example 1), judged from mortality: A (100)
[2]; [5]
  Insecticidal effect (Test Example 2), judged from mortality: A (100)
[3]; [6]
  Insecticidal effect (Test Example 3), judged from mortality: A (100)

## CC(C)NC(=O)c1c(Cl)cccc1C(=O)Nc1ccc(F)c(F)c1F [compound 116]
[1]; [4]
  Insecticidal effect, Test Example 1: A (100)
[2]; [5]
  Insecticidal effect, Test Example 2: D (79-50)
[3]; [6]
  Insecticidal effect, Test Example 3: A (100)

## CC(C)NC(=O)c1c(Cl)cccc1C(=O)Nc1ccc(C(F)(F)C(F)(F)F)cc1C(F)(F)F [compound 1384]
[1]; [7]
  Insecticidal effect, Test Example 1: A (100)
[2]; [8]
  Insecticidal effect, Test Example 2: A (100)
[3]; [9]
  Insecticidal effect, Test Example 3: A (100)

## CC(C)NC(=O)c1c(C(=O)Nc2ccc(OC(F)F)cc2)cccc1[N+](=O)[O-] [compound 617]
[1]
  Insecticidal effect on diamondback moth (Test Example 1), judged grade: A (100)
[2]
  Insecticidal effect on common cutworm (Test Example 2), judged grade: A (100)
[3]
  Insecticidal effect on rice leafroller (Test Example 3), judged grade: A (100)

## COc1ccc(-c2ccccc2)cc1NC(=O)c1c(Cl)cccc1C(=O)NC(C)C [compound 1295]
[1]; [7]
  Insecticidal effect, Test Example 1: A (100)
[2]; [8]
  Insecticidal effect, Test Example 2: A (100)
[3]; [9]
  Insecticidal effect, Test Example 3: A (100)

## Cc1cc(C(F)(F)C(F)(F)F)ccc1NC(=O)c1cccc(I)c1C(=O)N(C)Cc1ccccc1 [compound 1438]
[1]; [7]
  Insecticidal effect, Test Example 1: A (100)
[2]; [8]
  Insecticidal effect, Test Example 2: A (100)
[3]; [9]
  Insecticidal effect, Test Example 3: A (100)

## Cc1cc(C(F)(F)C(F)(F)C(F)(F)F)ccc1NC(=O)c1cccc(F)c1C(=O)NC(C)C [compound 496]
[1]
  Insecticidal effect on diamondback moth (Test Example 1), judged grade: A (100)
[2]
  Insecticidal effect on common cutworm (Test Example 2), judged grade: A (100)
[3]
  Insecticidal effect on rice leafroller (Test Example 3), judged grade: A (100)

## Cc1cc(F)ccc1NC(=O)c1cccc([N+](=O)[O-])c1C(=O)NC(C)C [compound 675]
[1]
  Insecticidal effect on diamondback moth (Test Example 1), judged grade: A (100)
[2]
  Insecticidal effect on common cutworm (Test Example 2), judged grade: A (100)
[3]
  Insecticidal effect on rice leafroller (Test Example 3), judged grade: A (100)

## Cc1cc(OC(F)(F)Br)ccc1NC(=O)c1cccc(I)c1C(=O)NC(C)(C)C [compound 1051]
[1]; [7]
  Insecticidal effect, Test Example 1: A (100)
[2]; [8]
  Insecticidal effect, Test Example 2: A (100)
[3]; [9]
  Insecticidal effect, Test Example 3: A (100)
